The compounds below were run against T1, trypsin-activated recombinant human renin (Homo sapiens, UniProt P00797) (assay: Renin fluorescence assay (internally quenched peptide substrate)). Settings: compounds I*.
T1 sequence (P00797 67-406): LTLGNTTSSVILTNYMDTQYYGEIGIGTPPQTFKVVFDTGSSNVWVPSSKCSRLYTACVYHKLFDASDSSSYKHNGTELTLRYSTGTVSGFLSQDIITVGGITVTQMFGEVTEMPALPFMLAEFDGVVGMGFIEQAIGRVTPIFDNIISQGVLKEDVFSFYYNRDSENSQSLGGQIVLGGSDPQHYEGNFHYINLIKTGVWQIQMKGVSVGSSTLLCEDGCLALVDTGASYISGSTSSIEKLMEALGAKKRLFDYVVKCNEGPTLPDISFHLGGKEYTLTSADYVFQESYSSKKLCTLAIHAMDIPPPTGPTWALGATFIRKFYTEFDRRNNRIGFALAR
Type: biochemical
Method in brief: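 Compounds (1 nM–10 μM final, DMSO) were mixed with internally quenched angiotensinogen-sequence substrate in pH 7.0 BES/NaCl/BSA buffer, then 0.2-2 nM trypsin-activated human renin added. Rate from the linear fluorescence increase (340 nm excitation, 495 nm emission) over 60-360 min at rt, compared with uninhibited control.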

| SMILES | IC50 |
| --- | --- |
| CNC[C@H](C[C@H]1CCC(=O)N(C)C1)NC(=O)N1CCC[C@@H]([C@@H](OCCNC(=O)OC)c2cccc(Cl)c2)C1 [I*-131a, methyl 2-((R)-(3-chlorophenyl)((R)-1-((S)-1-((R)-1-methyl-6-oxopiperidin-3-yl)-3-(methylamino)propan-2-ylcarbamoyl)piperidin-3-yl)methoxy)ethylcarbamate] | > 50 nM |
| CNC[C@@H](CC1(C)CCCCC1)NC(=O)N1CCC[C@@H]([C@@H](OCCNC(=O)OC)c2cccc(F)c2)C1 [I*-42a, methyl 2-((R)-(3-fluorophenyl)((R)-1-((R)-1-(methylamino)-3-(1-methylcyclohexyl)propan-2-ylcarbamoyl)piperidin-3-yl)methoxy)ethylcarbamate] | > 50 nM |
| CNC[C@@H](NC(=O)N1CCC[C@@H]([C@@H](OCCNC(=O)OC)c2cc(F)ccc2C)C1)[C@@H](O)C1CCCC1 [I*-53a, methyl 2-((R)-((R)-1-((1S,2R)-1-cyclopentyl-1-hydroxy-3-(methylamino)propan-2-ylcarbamoyl)piperidin-3-yl)(5-fluoro-2-methylphenyl)methoxy)ethylcarbamate] | < 20 nM |
| CNC[C@H](CC1CCCCC1)NC(=O)N1CCC[C@@H]([C@H](OCCNC(=O)OC)c2nccs2)C1 [I*-12a, methyl 2-((S)-((R)-1-((S)-1-cyclohexyl-3-(methylamino)propan-2-ylcarbamoyl)piperidin-3-yl)(thiazol-2-yl)methoxy)ethylcarbamate] | > 50 nM |
| CNCC(C[C@H]1C[C@@H](C)O[C@@H](C)C1)NC(=O)N1CCC[C@@H]([C@@H](OCCNC(=O)OC)c2cccc(Cl)c2)C1 (stereo partly drawn) [I*-132a, methyl 2-((R)-(3-chlorophenyl)((R)-1-((S)-1-((2S,4r,6R)-2,6-dimethyl-tetrahydro-2H-pyran-4-yl)-3-(methylamino)propan-2-ylcarbamoyl)piperidin-3-yl)methoxy)ethylcarbamate] | > 50 nM |
| CNC[C@H](C[C@H]1CCC(C)(C)OC1)NC(=O)N1CCC[C@@H]([C@@H](OCCNC(=O)OC)c2cccc(Cl)c2)C1 [I*-157a, methyl 2-((R)-(3-chlorophenyl)((R)-1-((S)-1-((R)-6,6-dimethyl-tetrahydro-2H-pyran-3-yl)-3-(methylamino)propan-2-ylcarbamoyl)piperidin-3-yl)methoxy)ethylcarbamate] | < 10 nM |
| CNC[C@H](CC1CCCCC1)NC(=O)N1CCC[C@@H]([C@@H](CCCNC(=O)OC)c2cccc(F)c2)C1 [I*-23a, methyl (R)-4-((S)-1-((S)-1-cyclohexyl-3-(methylamino)propan-2-ylcarbamoyl)piperidin-3-yl)-4-(3-fluorophenyl)butylcarbamate] | < 10 nM |
| CNC[C@H](CC12CC3CC(CC1C3)C2)NC(=O)N1CCC[C@@H]([C@@H](OCCNC(=O)OC)c2ccccc2)C1 [I*-74a, methyl 2-((R)-((3R)-1-((S)-1-(3-noradamantyl)-3-(methylamino)propan-2-ylcarbamoyl)piperidin-3-yl)(phenyl)methoxy)ethylcarbamate] | < 20 nM |
| CNC[C@H](CC12CC3CC(CC(C3)C1)C2)NC(=O)N1CCC[C@@H]([C@@H](OCCNC(=O)OC)c2cccc(F)c2)C1 [I*-145a, methyl 2-((R)-((R)-1-((S)-1-(1-adamantyl)-3-(methylamino)propan-2-ylcarbamoyl)piperidin-3-yl)(3-fluorophenyl)methoxy)ethylcarbamate] | < 10 nM |
| CNC[C@@H](CC1(C)CCCCC1)NC(=O)N1CCC[C@@H]([C@@H](OCCNC(=O)OC)c2cc(F)cc(F)c2)C1 [I*-94a, methyl 2-((R)-(3,5-difluorophenyl)((R)-1-((R)-1-(methylamino)-3-(1-methylcyclohexyl)propan-2-ylcarbamoyl)piperidin-3-yl)methoxy)ethylcarbamate] | > 50 nM |
| CNC[C@@H](CC1(C)CCCCC1)NC(=O)N1CCC[C@@H]([C@@H](OCCNC(=O)OC)c2cccc(Cl)c2)C1 [I*-89a, methyl 2-((R)-(3-chlorophenyl)((R)-1-((R)-1-(methylamino)-3-(1-methylcyclohexyl)propan-2-ylcarbamoyl)piperidin-3-yl)methoxy)ethylcarbamate] | > 50 nM |
| CNC[C@H](CC1CCC(F)(F)CC1)NC(=O)N1CCC[C@@H]([C@@H](OCCNC(=O)OC)c2cccc(Cl)c2)C1 [I*-146a, methyl 2-((R)-(3-chlorophenyl)((R)-1-((S)-1-(4,4-difluorocyclohexyl)-3-(methylamino)propan-2-ylcarbamoyl)piperidin-3-yl)methoxy)ethylcarbamate] | < 1 nM |
| CNC[C@H](C[C@H]1CCC(C)(C)OC1)NC(=O)N1CCC[C@@H]([C@@H](OCCNC(=O)OC)c2ccccc2)C1 [I*-156a, methyl 2-((R)—((R)-1-((S)-1-((R)-6,6-dimethyl-tetrahydro-2H-pyran-3-yl)-3-(methylamino)propan-2-ylcarbamoyl)piperidin-3-yl)(phenyl)methoxy)ethylcarbamate] | < 20 nM |
| CNC[C@H](CC1CCCCC1)NC(=O)N1CCC[C@@H]([C@@H](OCCNC(=O)OC)c2cccc(C)c2)C1 [I*-18a, methyl 2-((R)-((R)-1-((S)-1-cyclohexyl-3-(methylamino)propan-2-ylcarbamoyl)piperidin-3-yl)(m-tolyl)methoxy)ethylcarbamate] | < 1 nM |
| CNC[C@H](CCC1(OC)CCCC1)NC(=O)N1CCC[C@@H]([C@@H](OCCNC(=O)OC)c2cccc(F)c2)C1 [I*-78a, methyl 2-((R)-(3-fluorophenyl)((R)-1-((S)-4-(1-methoxycyclopentyl)-1-(methylamino)butan-2-yl-carbamoyl)piperidin-3-yl)methoxy)ethylcarbamate] | > 50 nM |
| CNC[C@H](CC1CCCCC1)NC(=O)N1CCC[C@@H]([C@@H](OCCNc2nccs2)c2cccc(Cl)c2)C1 [I*-128a, (R)-3-((R)-(3-chlorophenyl)(2-(thiazol-2-ylamino)ethoxy)methyl)-N-((S)-1-cyclohexyl-3-(methylamino)propan-2-yl)piperidine-1-carboxamide] | > 50 nM |
| COC(=O)NCCO[C@@H](c1cccc(F)c1)[C@@H]1CCCN(C(=O)NC[C@@H](N)C[C@H]2CCCCOC2)C1 [I*-28a, methyl 2-((R)-((R)-1-((S)-2-amino-3-((R)-oxepan-3-yl)propylcarbamoyl)piperidin-3-yl)(3-fluorophenyl)methoxy)ethylcarbamate] | < 10 nM |

Other lines, results leading:

| IC50 | SMILES |
| --- | --- |
| < 10 nM | CNC[C@H](CC1CCOCC1)NC(=O)N1CCC[C@@H]([C@@H](OCCNC(=O)OC)c2cc(C)cc(F)c2)C1 [I*-52a, methyl 2-((R)-(3-fluoro-5-methylphenyl)((R)-1-((S)-1-(methylamino)-3-(tetrahydro-2H-pyran-4-yl)propan-2-ylcarbamoyl)piperidin-3-yl)methoxy)ethylcarbamate] |
| < 20 nM | CNC[C@H](CC1CCOCC1)NC(=O)N1CCC[C@@H]([C@@H](OCCNC(=O)OC)c2cccc(F)c2F)C1 [I*-71a, methyl 2-((R)-(2,3-difluorophenyl)((R)-1-((S)-1-(methylamino)-3-(tetrahydro-2H-pyran-4-yl)propan-2-ylcarbamoyl)piperidin-3-yl)methoxy)ethylcarbamate] |
| < 1 nM | CNC[C@H](CC1CCC(F)(F)CC1)NC(=O)N1CCC[C@@H]([C@@H](OCCNC(=O)OC)c2cccc(F)c2)C1 [I*-120a, methyl 2-((R)—((R)-1-((S)-1-(4,4-difluorocyclohexyl)-3-(methylamino)propan-2-ylcarbamoyl)piperidin-3-yl)(3-fluorophenyl)methoxy)ethylcarbamate] |
| > 50 nM | CNC[C@H](CC1CCC(O)CC1)NC(=O)N1CCC[C@@H]([C@@H](OCCNC(=O)OC)c2cccc(F)c2)C1 (stereo partly drawn) [I*-51a, methyl 2-((R)-(3-fluorophenyl)((R)-1-((S)-1-(4-hydroxycyclohexyl)-3-(methylamino)propan-2-ylcarbamoyl)piperidin-3-yl)methoxy)ethylcarbamate] |
| < 10 nM | CNC[C@H](CC1CCOCC1)NC(=O)N1CCC[C@@H]([C@@H](OCCNC(=O)OC)c2cc(F)ccc2C)C1 [I*-50a, methyl 2-((R)-(5-fluoro-2-methylphenyl)((R)-1-((S)-1-(methylamino)-3-(tetrahydro-2H-pyran-4-yl)propan-2-ylcarbamoyl)piperidin-3-yl)methoxy)ethylcarbamate] |
| < 50 nM | CNC[C@H](CC1CCOCC1)NC(=O)N1CCC[C@@H]([C@@H](OCCNC(=O)OC)c2cc(F)ccc2F)C1 [I*-69a, methyl 2-((R)-(2,5-difluorophenyl)((R)-1-((S)-1-(methylamino)-3-(tetrahydro-2H-pyran-4-yl)propan-2-ylcarbamoyl)piperidin-3-yl)methoxy)ethylcarbamate] |
| < 10 nM | CNC[C@@H](NC(=O)N1CCC[C@@H]([C@@H](OCCNC(=O)OC)c2cccc(F)c2F)C1)[C@@H](O)C1CCCC1 [I*-72a, methyl 2-((R)-((R)-1-((1S,2R)-1-cyclopentyl-1-hydroxy-3-(methylamino)propan-2-ylcarbamoyl)piperidin-3-yl)(2,3-difluorophenyl)methoxy)ethylcarbamate] |
| > 50 nM | CNC[C@H](CC1CCOCC1)NC(=O)N1CCC[C@@H]([C@@H](OCCNC(=O)OC)c2cccc(C(F)(F)F)c2)C1 [I*-144a, methyl 2-((R)-((R)-1-((S)-1-(methylamino)-3-(tetrahydro-2H-pyran-4-yl)propan-2-ylcarbamoyl)piperidin-3-yl)(3-(trifluoromethyl)phenyl)methoxy)ethylcarbamate] |

From patent US8487108B2, “Piperidinyl carbamate intermediates for the synthesis of aspartic protease inhibitors” (Vitae Pharmaceuticals, Inc., priority 2005, dated 2013)
